Results from patent publication US20250115669A1, “FGFR1/KLB Targeting Agonistic Antigen-Binding Proteins and Conjugates Thereof with GLP-1R Agonistic Peptides” (SANOFI, priority 2020, published 2025).
pEC50: −log10 of the molar value. Bridge positions count the residues as written; N and C are the ends. Ends that are not written are not given here. Peptide text beside a SMILES is read from it.

Legend:
Format in all cases: cell-based
human GLP-1 receptor = molecular target: T1, human GLP-1 receptor (Homo sapiens, UniProt P43220); test: HTRF cAMP assay in HEK-293 cells expressing human GLP-1 receptor
T1 construct: expressed in transfected cells; host or cells: PSC-HEK-293
Experimental: (§1) Each vial contained 1.8 ml cells. The vials were slowly frozen to −80° C. in isopropanol, and then transferred in liquid nitrogen for storage.
(§2) Cells were resuspended in assay buffer (cell buffer plus 2 mM IBMX) and adjusted to a cell density of 1 million cells/ml.
(§3) For measurement of cAMP generation, 5 μl cells (final 5000 cells/well) and 5 μl of test compound were added to a 384-well plate, followed by incubation for 30 min at room temperature.
(§4) The cAMP generated was determined using a kit from Cisbio Corp. based on HTRF (Homogenous Time Resolved Fluorescence). The cAMP assay was performed according to manufacturer's instructions (Cisbio).

[1] = molecular target: T2, human glucagon (GCG) receptor (Homo sapiens, UniProt P47871); test: HTRF cAMP assay in HEK-293 cells expressing human glucagon receptor; conditions: HEK-293 cells; read-out: HTRF cAMP EC50 Human GCGR
T2 construct: expressed in transfected cells; host or cells: PSC-HEK-293
Experimental: as §1, §2, §3, §4

human GIP receptor = molecular target: T3, human GIP receptor (Homo sapiens, UniProt P48546); test: HTRF cAMP assay in HEK-293 cells expressing human GIP receptor; conditions: HEK-293 cells; read-out: HTRF cAMP EC50 Human GIPR
T3 construct: expressed in transfected cells; host or cells: PSC-HEK-293
T3 sequence (P48546 22-466): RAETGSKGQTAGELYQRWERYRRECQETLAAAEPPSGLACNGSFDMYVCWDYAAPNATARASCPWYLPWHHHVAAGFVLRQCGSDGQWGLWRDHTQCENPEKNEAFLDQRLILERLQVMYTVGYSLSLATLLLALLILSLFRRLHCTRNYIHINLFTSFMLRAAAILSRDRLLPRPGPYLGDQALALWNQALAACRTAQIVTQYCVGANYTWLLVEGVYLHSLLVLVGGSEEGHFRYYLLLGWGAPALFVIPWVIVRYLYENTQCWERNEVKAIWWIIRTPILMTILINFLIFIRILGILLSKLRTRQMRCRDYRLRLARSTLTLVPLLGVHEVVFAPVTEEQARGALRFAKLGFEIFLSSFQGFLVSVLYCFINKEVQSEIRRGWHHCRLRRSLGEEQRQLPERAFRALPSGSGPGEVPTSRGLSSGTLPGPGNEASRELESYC
Experimental: as §1, §2, §3, §4

T2 sequence (P47871 26-477): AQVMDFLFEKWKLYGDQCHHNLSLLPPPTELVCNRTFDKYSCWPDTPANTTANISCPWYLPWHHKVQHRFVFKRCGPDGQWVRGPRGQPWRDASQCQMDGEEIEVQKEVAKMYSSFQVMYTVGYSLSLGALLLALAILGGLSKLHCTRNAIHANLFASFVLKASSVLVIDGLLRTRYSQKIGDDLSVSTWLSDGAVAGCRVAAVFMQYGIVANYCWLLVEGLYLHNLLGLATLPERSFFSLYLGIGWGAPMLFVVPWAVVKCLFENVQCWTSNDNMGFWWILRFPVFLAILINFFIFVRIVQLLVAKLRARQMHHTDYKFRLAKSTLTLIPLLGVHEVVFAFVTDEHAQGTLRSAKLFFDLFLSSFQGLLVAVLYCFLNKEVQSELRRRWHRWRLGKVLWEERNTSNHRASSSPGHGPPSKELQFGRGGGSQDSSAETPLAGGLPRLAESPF
T1 sequence (P43220 24-463): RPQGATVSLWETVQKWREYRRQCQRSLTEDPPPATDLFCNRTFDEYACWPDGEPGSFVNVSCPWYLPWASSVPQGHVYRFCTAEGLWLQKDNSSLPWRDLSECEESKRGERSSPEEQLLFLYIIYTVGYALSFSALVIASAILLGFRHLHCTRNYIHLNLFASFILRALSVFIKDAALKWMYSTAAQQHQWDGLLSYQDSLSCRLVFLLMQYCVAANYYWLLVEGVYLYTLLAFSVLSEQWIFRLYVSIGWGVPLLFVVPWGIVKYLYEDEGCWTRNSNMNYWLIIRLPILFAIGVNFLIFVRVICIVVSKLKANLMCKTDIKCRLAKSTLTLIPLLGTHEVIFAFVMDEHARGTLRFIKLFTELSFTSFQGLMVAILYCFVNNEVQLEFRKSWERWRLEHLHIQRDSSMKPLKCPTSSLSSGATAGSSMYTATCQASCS

pEC50 [1] | pEC50 (human GIP receptor) | Compound | pEC50 (human GLP-1 receptor)
< 8.00 | 8.86 | CC[C@H](C)[C@H](NC(=O)[C@H](Cc1ccccc1)NC(=O)[C@H](CCC(=O)O)NC(=O)[C@H](Cc1c[nH]cn1)NC(=O)[C@@H](NC(=O)[C@H](C)NC(=O)[C@H](CCCNC(=N)N)NC(=O)[C@H](CCCCN)NC(=O)[C@H](CCC(=O)O)NC(=O)[C@H](CC(C)C)NC(=O)[C@H](CC(C)C)NC(=O)[C@H](CCCCN)NC(=O)[C@H](CO)NC(=O)[C@H](CC(C)C)NC(=O)[C@H](CC(=O)O)NC(=O)[C@H](CO)NC(=O)[C@@H](NC(=O)[C@H](Cc1ccccc1)NC(=O)[C@@H](NC(=O)CNC(=O)[C@H](CCC(=O)O)NC(=O)CNC(=O)[C@@H](N)Cc1c[nH]cn1)[C@@H](C)O)[C@@H](C)O)C(C)C)C(=O)N[C@@H](CCC(=O)O)C(=O)N[C@@H](Cc1c[nH]c2ccccc12)C(=O)N[C@@H](CC(C)C)C(=O)N[C@@H](CCCCN)C(=O)N[C@@H](C)C(=O)NCC(=O)NCC(=O)N1CCC[C@H]1C(=O)N[C@@H](CO)C(=O)N[C@@H](CO)C(=O)NCC(=O)N[C@@H](CCCCN)C(=O)N1CCC[C@H]1C(=O)N1CCC[C@H]1C(=O)N1CCC[C@H]1C(=O)N[C@@H](CCCCN)C(N)=O [Ab P029] (H-HGEGTFTSDLSKLLEKRAVHEFIEWLKAGGPSSGKPPPK-NH2; N-terminus assumed) | 
< 8.00 | 8.63 | CC[C@H](C)[C@H](NC(=O)[C@H](Cc1ccccc1)NC(=O)[C@H](CCC(=O)O)NC(=O)[C@H](Cc1c[nH]cn1)NC(=O)[C@H](CCC(N)=O)NC(=O)[C@H](C)NC(=O)[C@H](CCCNC(=N)N)NC(=O)[C@H](CCCCN)NC(=O)[C@H](CCC(=O)O)NC(=O)[C@H](CC(C)C)NC(=O)[C@H](CC(C)C)NC(=O)[C@H](CCC(=O)O)NC(=O)[C@H](CO)NC(=O)[C@H](CC(C)C)NC(=O)[C@H](CC(=O)O)NC(=O)[C@H](CO)NC(=O)[C@@H](NC(=O)[C@H](Cc1ccccc1)NC(=O)[C@@H](NC(=O)CNC(=O)[C@H](CCC(=O)O)NC(=O)CNC(=O)[C@@H](N)Cc1c[nH]cn1)[C@@H](C)O)[C@@H](C)O)C(=O)N[C@@H](CCC(=O)O)C(=O)N[C@@H](Cc1c[nH]c2ccccc12)C(=O)N[C@@H](CC(C)C)C(=O)N[C@@H](CCCCN)C(=O)N[C@@H](C)C(=O)NCC(=O)NCC(=O)N1CCC[C@H]1C(=O)N[C@@H](CO)C(=O)N[C@@H](CO)C(=O)NCC(=O)N[C@@H](CCCCN)C(=O)N1CCC[C@H]1C(=O)N1CCC[C@H]1C(=O)N1CCC[C@H]1C(=O)N[C@@H](CCCCN)C(N)=O [Ab P032] (H-HGEGTFTSDLSELLEKRAQHEFIEWLKAGGPSSGKPPPK-NH2; N-terminus assumed) | 
< 8.00 | 10.62 | HGEGTFTSDLSILCEKRAVHEFIEWLIAGGPSSGKPPPKPGC-NH2 (disulfide 14-42) [Ab P033] | 

Second part, the compound before the results:

Compound | pEC50 [1] | pEC50 (human GIP receptor) | pEC50 (human GLP-1 receptor)
CC[C@H](C)[C@H](NC(=O)[C@H](CO)NC(=O)[C@H](CC(C)C)NC(=O)[C@H](CC(=O)O)NC(=O)[C@H](CO)NC(=O)[C@@H](NC(=O)[C@H](Cc1ccccc1)NC(=O)[C@@H](NC(=O)CNC(=O)[C@H](CCC(=O)O)NC(=O)CNC(=O)[C@@H](N)Cc1c[nH]cn1)[C@@H](C)O)[C@@H](C)O)C(=O)N[C@@H](CCC(N)=O)C(=O)N[C@@H](CC(C)C)C(=O)N[C@@H](CC(=O)O)C(=O)N[C@@H](CCC(=O)O)C(=O)N[C@@H](CCC(=O)O)C(=O)N[C@@H](C)C(=O)N[C@H](C(=O)N[C@@H](CCCNC(=N)N)C(=O)N[C@@H](CC(C)C)C(=O)N[C@@H](Cc1ccccc1)C(=O)N[C@H](C(=O)N[C@@H](CCC(=O)O)C(=O)N[C@@H](Cc1c[nH]c2ccccc12)C(=O)N[C@@H](CC(C)C)C(=O)N[C@@H](CC(C)C)C(=O)N[C@@H](C)C(=O)N[C@H](C(=O)NCC(=O)N1CCC[C@H]1C(=O)N[C@H](C(=O)N[C@@H](CO)C(=O)NCC(=O)N[C@@H](C)C(=O)N1CCC[C@H]1C(=O)N1CCC[C@H]1C(=O)N1CCC[C@H]1C(=O)N[C@@H](CO)C(N)=O)C(C)C)[C@@H](C)O)[C@@H](C)CC)C(C)C [Ab P005] |  |  | 11.51
CC[C@H](C)[C@H](NC(=O)[C@H](Cc1ccccc1)NC(=O)[C@H](CCC(=O)O)NC(=O)[C@H](Cc1c[nH]cn1)NC(=O)[C@H](CCC(N)=O)NC(=O)[C@H](C)NC(=O)[C@H](CCCNC(=N)N)NC(=O)[C@H](CCCCN)NC(=O)[C@H](CCC(=O)O)NC(=O)[C@H](CC(C)C)NC(=O)[C@H](CC(C)C)NC(=O)[C@H](CCCCN)NC(=O)[C@H](CO)NC(=O)[C@H](CC(C)C)NC(=O)[C@H](CC(=O)O)NC(=O)[C@H](CO)NC(=O)[C@@H](NC(=O)[C@H](Cc1ccccc1)NC(=O)[C@@H](NC(=O)CNC(=O)[C@H](CCC(=O)O)NC(=O)CNC(=O)[C@@H](N)Cc1c[nH]cn1)[C@@H](C)O)[C@@H](C)O)C(=O)N[C@@H](CCC(=O)O)C(=O)N[C@@H](Cc1c[nH]c2ccccc12)C(=O)N[C@@H](CC(C)C)C(=O)N[C@@H](CCCCN)C(=O)N[C@@H](C)C(=O)NCC(=O)NCC(=O)N1CCC[C@H]1C(=O)N[C@@H](CO)C(=O)N[C@@H](CO)C(=O)NCC(=O)N[C@@H](CCCCN)C(=O)N1CCC[C@H]1C(=O)N1CCC[C@H]1C(=O)N1CCC[C@H]1C(=O)N[C@@H](CCCCN)C(N)=O [Ab P030] (H-HGEGTFTSDLSKLLEKRAQHEFIEWLKAGGPSSGKPPPK-NH2; N-terminus assumed) | < 8.00 | 8.56 | 
CC[C@H](C)[C@H](NC(=O)[C@H](CC(C)C)NC(=O)[C@H](Cc1c[nH]c2ccccc12)NC(=O)[C@H](CCC(=O)O)NC(=O)[C@@H](NC(=O)[C@H](Cc1ccccc1)NC(=O)[C@H](CCC(=O)O)NC(=O)[C@H](Cc1c[nH]cn1)NC(=O)[C@H](CCC(N)=O)NC(=O)[C@H](C)NC(=O)[C@H](CCCNC(=N)N)NC(=O)[C@H](CCCCN)NC(=O)[C@H](CCC(=O)O)NC(=O)[C@H](CC(C)C)NC(=O)[C@H](CC(C)C)NC(=O)[C@H](CCC(=O)O)NC(=O)[C@H](CO)NC(=O)[C@H](CC(C)C)NC(=O)[C@H](CC(=O)O)NC(=O)[C@H](CO)NC(=O)[C@@H](NC(=O)[C@H](Cc1ccccc1)NC(=O)[C@@H](NC(=O)CNC(=O)[C@H](CCC(=O)O)NC(=O)CNC(=O)[C@@H](N)Cc1c[nH]cn1)[C@@H](C)O)[C@@H](C)O)[C@@H](C)CC)C(=O)N[C@@H](C)C(=O)NCC(=O)NCC(=O)N1CCC[C@H]1C(=O)N[C@@H](CO)C(=O)N[C@@H](CO)C(=O)NCC(=O)N[C@@H](CCCCN)C(=O)N1CCC[C@H]1C(=O)N1CCC[C@H]1C(=O)N1CCC[C@H]1C(=O)N[C@@H](CCCCN)C(N)=O [Ab P031] (H-HGEGTFTSDLSELLEKRAQHEFIEWLIAGGPSSGKPPPK-NH2; N-terminus assumed) | < 8.00 | 9.57 | 
HGEGTFTSDLSILCEKRAVHEFIEWLKAGGPSSGKPPPKPGC-NH2 (disulfide 14-42) [Ab P034] | < 8.00 | 9.59 | 
